The record followed here is US20240366560A1, “SMALL MOLECULE TREATMENT OF FATTY LIVER DISEASE AND HCC” (ScandiEdge Therapeutics AB, priority 2021, published 2024).

Molecules are shown by their SMILES.

Series [1] has as its system HSD-fed rats. As to the kind of experiment: In vivo efficacy study in HSD-fed steatosis rats: histopathological examination. The following applies: 30 mg/kg; for degeneration in renal tubule epithelium / fattening in the parenchyma cells of pancreas tissues / degeneration in hepatocytes in liver tissues / steatosis in hepatocytes in liver tissues: HSD 3w group: severe; for degeneration in hepatocytes in liver tissues / steatosis in hepatocytes in liver tissues: FIG. 3. The source says:
In vivo efficacy studies. After 1-week acclimation period, rats were randomly separated into two groups: control group (n=5) and high sucrose group (n=20). The control group was fed with a standard diet while the others consumed high sucrose diet (HSD). Sucrose was purchased from Sigma Chemical Co. (St Louis, MO, USA) and supplied at the dose of 10% in the drink water for two weeks.
After 2 weeks, five rats in the HSD group were randomly sacrificed for conformation of NAFLD model. Then, the remaining rats in the HSD group were separated into three sub-groups (n=5): HSD group, HSD plus BX-912 group and HSD plus JNK-IN-5A group. BX-912 and JNK-IN-5A were dissolved in DMSO and were orally administrated using oral gavage for one week (30 mg/kg/day). The HSD group were treated with vehicle solution only.
At the end of the experiment, rats were sacrificed after being anesthetized. Blood samples were collected from the abdominal aorta and centrifuged at 8000 rpm for 15 min at 4° C. The plasma was separated and stored at −80° C. until further analysis. Other internal organs, including the heart, adipose tissues, liver, kidney, muscle, intestine (duodenum, ileum, jejunum), pancreas, colon and stomach were immediately removed and then snap frozen in liquid nitrogen and stored at −80° C.; the liver was also fixed in 10% formaldehyde for histopathological examination.
(§1) Histopathological examination. The liver tissues were fixed in 10% buffered formaldehyde solution. After fixation, the tissues were passed through graded alcohol and xylene series and embedded in paraffin blocks. 5 micrometer thick sections were taken serially from the paraffin blocks. Histopathological changes were evaluated by performing hematoxylin eosin staining on the sections taken. Sections were evaluated according to histopathological findings as none (−), mild (+), moderate (++) and severe (+++).
Next, the efficacy of these two drugs in a steatosis rat study was investigated by feeding the animals with HSD. Five groups of 12-week-old rats (n=5) were raised. For two weeks, the first group was fed with CHOW and the remaining four groups were fed with HSD. […] One of the remaining groups was fed with HSD (HSD 3w) for seven days. Another one of the remaining groups was fed with HSD plus BX-912 (30 mg/kg) for seven days. The last one of the remaining groups was fed with HSD plus JNK-IN-5A (30 mg/kg) for seven days. After said seven days, all three groups were sacrificed, and tissue samples from the liver and other major organs and blood samples were collected for efficacy examination. A histopathological and immunohistochemical analysis was performed on the liver samples and other major organs obtained from the three rat groups.

Another series relates to Sprague Dawley male rats. Put plainly: In vivo biosafety study: histopathological examination of major organs. More on the design: species or system rat. The conditions noted are these: 30 mg/kg oral, 7 days, CHOW. The protocol: In vivo biosafety studies. Healthy Sprague Dawley male rats (12 weeks old, 250-280 g) were obtained from Atatürk University Experimental Research Center (ATADEM, Erzurum Turkey) and housed under standard environmental conditions (temperature 20° C.-25° C., humidity 50±20% and 12-hour light/dark diurnal cycle). Food and water were available ad libitum. Rats were randomly separated into one control group and two experimental groups (30 mg/kg/day BX-912 or JNK-IN-5A, n=5). BX-912 and JNK-IN-5A were dissolved in DMSO and orally administrated using oral gavage for 7 days. The control group were received the same amount of vehicle solution only.
After 7 days, rats were anaesthetized, and blood samples were collected from the abdominal aorta for biochemical and haematological analysis. The plasma was separated and stored at −80° C. for further analysis. Major organs such as heart, kidney, liver, muscle, adipose, intestine (duodenum, ileum, jejunum), pancreas, colon, and stomach were collected from all the animals for further analysis. Selected organs were fixed in 10% neutral buffered formalin for histopathological examination.
as §1
To evaluate the potential toxicity of BX-912 and JNK-IN-5A in animals, three groups of 12-week-old rats (n=5) were raised. The first group was fed with CHOW (Ctrl) for seven days. The second group was fed with CHOW plus BX-912 (30 mg/kg) for seven days. The third group was fed with CHOW plus JNK-IN-5A (30 mg/kg) for seven days. After the seven days, all rats were sacrificed, and tissue samples from major organs and blood samples were collected for biosafety evaluation.

Series [2] relates to HSD-fed rats. As to the kind of experiment: In vivo efficacy study in HSD-fed steatosis rats: immunohistochemical 8-OH-dG examination of liver. More on the design: species or system rat. The conditions noted are these: 30 mg/kg, 7 days, HSD 3w group: strong, FIG. 3. The text has this: In vivo efficacy studies. After 1-week acclimation period, rats were randomly separated into two groups: control group (n=5) and high sucrose group (n=20). The control group was fed with a standard diet while the others consumed high sucrose diet (HSD). Sucrose was purchased from Sigma Chemical Co. (St Louis, MO, USA) and supplied at the dose of 10% in the drink water for two weeks. After 2 weeks, five rats in the HSD group were randomly sacrificed for conformation of NAFLD model. Then, the remaining rats in the HSD group were separated into three sub-groups (n=5): HSD group, HSD plus BX-912 group and HSD plus JNK-IN-5A group. BX-912 and JNK-IN-5A were dissolved in DMSO and were orally administrated using oral gavage for one week (30 mg/kg/day). The HSD group were treated with vehicle solution only. At the end of the experiment, rats were sacrificed after being anesthetized. Blood samples were collected from the abdominal aorta and centrifuged at 8000 rpm for 15 min at 4° C. The plasma was separated and stored at −80° C. until further analysis. Other internal organs, including the heart, adipose tissues, liver, kidney, muscle, intestine (duodenum, ileum, jejunum), pancreas, colon and stomach were immediately removed and then snap frozen in liquid nitrogen and stored at −80° C.; the liver was also fixed in 10% formaldehyde for histopathological examination. Immunohistochemical examination. […]

`O=C(Nc1cccc(Nc2ncc(Br)c(NCCc3cnc[nH]3)n2)c1)N1CCCC1` [BX-912, N-[3-[[5-bromo-4-[[2-(1H-imidazol-5-yl)ethyl]amino]-2-pyrimidinyl]amino]phenyl]-1-pyrrolidinecarboxamide]: in the series with HSD-fed rats [1] (HSD-fed rats, 7 days), the “degeneration in renal tubule epithelium” value was “mild”, the “fattening in the parenchyma cells of pancreas tissues” value is listed as “mild”, the “degeneration in hepatocytes in liver tissues” value was “Mild” and the “steatosis in hepatocytes in liver tissues” value is listed as “moderate”. The “toxic effect on small intestine, large intestine, stomach, heart and muscle tissues” value in the series on HSD-fed rats [1] (rat, in vivo) is on record as “no toxic effect”. In addition, in the series with Sprague Dawley male rats, the “histological structure of kidney, small intestine, large intestine, stomach, heart, pancreas, muscle tissues and liver” value was “normal histological structures”; the “side effects on the rats (overall conclusion)” value is reported as “no side effects”. Also, the “8-OH-dG expression in hepatocytes in liver tissues” value in the series on HSD-fed rats [2] is listed as “significantly decreased”.

Consider `N#Cc1c(NC(=O)c2cccc3ccccc23)sc2c1CCCC2` [JNK-IN-5A, N-(3-cyano-4,5,6,7-tetrahydrobenzo [b]thien-2-yl)-1-naphthalenecarboxamide], for which, in the series on HSD-fed rats [1] (HSD-fed rats, 7 days), the “toxic effect on small intestine, large intestine, stomach, heart and muscle tissues” value is recorded as “no toxic effect”; the “degeneration in renal tubule epithelium” value was “mild”; the “fattening in the parenchyma cells of pancreas tissues” value is reported as “mild”; the “degeneration in hepatocytes in liver tissues” value was “mild”. The “steatosis in hepatocytes in liver tissues” value with HSD-fed rats [1] (HSD-fed rats, 7 days) is given as “mild”. In addition, in the series on Sprague Dawley male rats, the “histological structure of kidney, small intestine, large intestine, stomach, heart, pancreas, muscle tissues and liver” value is recorded as “normal histological structures”; the “side effects on the rats (overall conclusion)” value was “no side effects”. The “8-OH-dG expression in hepatocytes in liver tissues” value with HSD-fed rats [2] is “significantly decreased”.
